ChEMBL document CHEMBL1201862, “PubChem BioAssay data set” (2004)
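Grown in 96-well plates, cells were treated for 48 hours with each compound at five concentrations. Insufficient inhibition: endpoint recorded as highest concentration tested. Abbreviation: GI50, concentration required for 50% inhibition of growth.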 The source made the active and inactive calls. No stated cut-off is given here; in the data, active = GI50 up to about 1.1 µM and inactive = higher. Bridge positions count the residues as written; N and C are the ends. Where a SMILES comes first, the peptide text is derived from it. Peptide text beside a SMILES is read from it. [ ]: non-standard residue; d: D form. * marks the point of attachment. Aoe = N[C@@H](CCCCCC(=O)[C@@H]1CO1)C(=O)O; Cbz = O=C(OCc1ccccc1)*

Assays:
Assay in all cases: NCI tumour cell line growth inhibition, 48 h
NCI/ADR-RES = tested on: NCI/ADR-RES
HCT-15 = tested on: HCT-15
MDA-MB-231 = tested on: MDA-MB-231
HT-29 = tested on: HT-29
MOLT-4 = tested on: MOLT-4
OVCAR-8 = tested on: OVCAR-8
SNB-75 = tested on: SNB-75
HCC 2998 = tested on: HCC 2998
EKVX = tested on: EKVX
TK-10 = tested on: TK-10
LOX IMVI = tested on: LOX IMVI
T47D = tested on: T47D
CCRF-CEM = tested on: CCRF-CEM
UO-31 = tested on: UO-31
UACC-257 = tested on: UACC-257
RXF 393 = tested on: RXF 393
Malme-3M = tested on: Malme-3M
HOP-92 = tested on: HOP-92
A498 = tested on: A498
SF-539 = tested on: SF-539

SMILES	GI50 (NCI/ADR-RES)	GI50 (HCT-15) [µM]	GI50 (MDA-MB-231)	GI50 (HT-29)	GI50 (MOLT-4)	GI50 (OVCAR-8)	GI50 (SNB-75)	GI50 (HCC 2998)	GI50 (EKVX)	GI50 (TK-10)	GI50 (LOX IMVI)	GI50 (T47D)	GI50 (CCRF-CEM)	GI50 (UO-31)	GI50 (UACC-257)	GI50 (RXF 393)	GI50 (Malme-3M)	GI50 (HOP-92)	GI50 (A498)	GI50 (SF-539)
c1ccc(CNCCCCNCCCNCc2ccccc2)cc1	> 100 µM (inactive)	19	15.2 µM (inactive)	15.2 µM (inactive)	14.3 µM (inactive)	> 10 µM (inactive)	19.4 µM (inactive)	16.9 µM (inactive)	25.6 µM (inactive)	19.8 µM (inactive)	17.7 µM (inactive)	> 100 µM (inactive)	13 µM (inactive)	21.5 µM (inactive)	17.3 µM (inactive)	16.4 µM (inactive)	15.5 µM (inactive)	11.8 µM (inactive)	–	–
CCOC(=O)C(Br)(C(N)=O)C1(O)OC(c2ccccc2)=C(Br)C1=O (stereo unspecified)	60.3 µM (inactive)	16.7	18.4 µM (inactive)	20.7 µM (inactive)	–	17.5 µM (inactive)	–	20 µM (inactive)	23.2 µM (inactive)	16.7 µM (inactive)	21.3 µM (inactive)	24.3 µM (inactive)	2.65 µM (inactive)	21.2 µM (inactive)	> 100 µM (inactive)	19.3 µM (inactive)	25.2 µM (inactive)	–	> 100 µM (inactive)	18.2 µM (inactive)
Cc1ccc(-n2cc([Si](C)(C)C)nn2)s1	48.4 µM (inactive)	> 100	> 100 µM (inactive)	34.8 µM (inactive)	–	> 100 µM (inactive)	–	81.3 µM (inactive)	–	> 100 µM (inactive)	> 100 µM (inactive)	> 100 µM (inactive)	–	84.3 µM (inactive)	> 100 µM (inactive)	–	> 100 µM (inactive)	> 100 µM (inactive)	> 100 µM (inactive)	> 100 µM (inactive)
CC1(C)N=C(/C(Cl)=[N+](/[O-])C(=O)c2ccc(F)cc2)C(C)(C)N1O	36.6 µM (inactive)	13.4	16.8 µM (inactive)	19.9 µM (inactive)	–	17.5 µM (inactive)	16.6 µM (inactive)	18.8 µM (inactive)	20.1 µM (inactive)	16.1 µM (inactive)	11.7 µM (inactive)	25.7 µM (inactive)	0.466 µM (active)	21 µM (inactive)	17.1 µM (inactive)	14.8 µM (inactive)	16.3 µM (inactive)	24.5 µM (inactive)	–	23.7 µM (inactive)
O=C1c2cc(I)ccc2N2CCN=C2N1Cc1ccccc1	70.8 µM (inactive)	> 100	> 100 µM (inactive)	> 100 µM (inactive)	4.46 µM (inactive)	55 µM (inactive)	19.7 µM (inactive)	–	22.1 µM (inactive)	> 100 µM (inactive)	> 100 µM (inactive)	58.7 µM (inactive)	> 100 µM (inactive)	57.4 µM (inactive)	> 100 µM (inactive)	23.7 µM (inactive)	> 100 µM (inactive)	17.7 µM (inactive)	0.723 µM (active)	37.5 µM (inactive)
O=C(O)CCCc1ccc2c(c1)C(C(=O)O)CC2 (stereo unspecified)	> 100 µM (inactive)	> 100	> 100 µM (inactive)	> 100 µM (inactive)	> 100 µM (inactive)	> 100 µM (inactive)	> 100 µM (inactive)	> 100 µM (inactive)	> 100 µM (inactive)	> 100 µM (inactive)	> 100 µM (inactive)	> 100 µM (inactive)	> 100 µM (inactive)	> 100 µM (inactive)	> 100 µM (inactive)	> 100 µM (inactive)	> 100 µM (inactive)	–	–	> 100 µM (inactive)
CNC(=O)C1CCCCNC(=O)CCC(NC(=O)OCc2ccccc2)C(=O)N1 (stereo not drawn) (Cbz-Glu-Lys-NHMe; lactam 1-2; configuration not given here)	> 100 µM (inactive)	> 100	> 100 µM (inactive)	> 100 µM (inactive)	> 100 µM (inactive)	> 100 µM (inactive)	> 100 µM (inactive)	–	> 100 µM (inactive)	> 100 µM (inactive)	> 100 µM (inactive)	> 100 µM (inactive)	> 100 µM (inactive)	> 100 µM (inactive)	> 100 µM (inactive)	> 100 µM (inactive)	> 100 µM (inactive)	> 100 µM (inactive)	39.5 µM (inactive)	> 100 µM (inactive)
O=C1N[C@@H](Cc2ccccc2)C(=O)N2CCC[C@@H]2C(=O)N[C@@H](CCCCCC(=O)[C@@H]2CO2)C(=O)N[C@H]1Cc1ccccc1 [TRAPOXIN B] (cyclo(FF[dP][Aoe]))	0.0475 µM (active)	0.0432	0.161 µM (active)	< 0.000212 µM (active)	< 0.000212 µM (active)	< 0.000212 µM (active)	0.00366 µM (active)	0.0343 µM (active)	0.0632 µM (active)	0.00368 µM (active)	0.000472 µM (active)	0.0034 µM (active)	0.0151 µM (active)	0.00209 µM (active)	–	–	< 0.000212 µM (active)	0.00574 µM (active)	0.518 µM (active)	–
